Values quoted from earlier work in patent US11350648B2, “Compositions and related methods for agriculture” (priority 2017, dated 2022).

System: gram-negative and gram-positive bacteria as well as fungi

For “NCR335: cationic NCR peptide (RQMIILRLNTTFRPLNFKMLRFWGQN)”, the antimicrobial activity is given as “effective against gram-negative and gram-positive bacteria as well as fungi”.
